13 compounds from PubChem BioAssay (NCI) can be followed below.

Test systems include M19-MEL melanoma; SF-268 CNS; SF-295 CNS; HOP-62 NSCLC; COLO 205 colon; K-562 leukemia; SNB-78 CNS; SNB-75 CNS; NCI-H522 lung.
Holding throughout (assay): NCI tumour cell line growth inhibition, 48 h

SMILES strings stand for the structures.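 How tested: cells in 96-well plates exposed to compound for 48 hours at five concentrations. Here, GI50 denotes the concentration required for 50% inhibition of growth. TGI: concentration producing complete growth inhibition.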

For `CCOC(=O)N1C(c2ccccc2)C=CC(c2ccccc2)N1C(=O)OCC` (stereo not given), the TGI with M19-MEL melanoma, in the test with SF-268 CNS, in the test with SF-295 CNS, in the test with HOP-62 NSCLC, with COLO 205 colon and in the test on K-562 leukemia was more than 100 µM each time. The TGI with SNB-78 CNS and in the test with SNB-75 CNS was more than 100 µM each time.
`C=C1CCCC2[C@](C)(CC3=C(O)C(=O)C=C(OC)C3=O)[C@@H](C)CC[C@]12C` (stereo not given in full): the TGI with M19-MEL melanoma is 5.95 µM; in the test with SF-268 CNS, more than 100 µM; with SF-295 CNS, 13.7 µM; in the test with NCI-H522 lung, 28.5 µM; in the test with COLO 205 colon, 21.2 µM; in the test with K-562 leukemia it was more than 100 µM. In the test on SNB-75 CNS, this compound displayed a TGI of more than 100 µM.
As for `O=C(N/C(=C\c1ccc(/C=C(\NC(=O)c2ccccc2)c2nc3ccccc3s2)cc1)c1nc2ccccc2s1)c1ccccc1`, the TGI in the test with M19-MEL melanoma is 15.2 µM; in the test on SF-268 CNS it was 21.1 µM; with SF-295 CNS, 16.1 µM; in the test on HOP-62 NSCLC, 32.3 µM; in the test with NCI-H522 lung it was 4.1 µM; with COLO 205 colon, 16.5 µM. Besides, the TGI in the test on K-562 leukemia is more than 100 µM; in the test with SNB-78 CNS, 62.3 µM; with SNB-75 CNS, 26.7 µM.
With `N#Cc1ccc(Oc2cccc(Oc3ccccc3)c2)cc1C#N`, the GI50 with M19-MEL melanoma, with HOP-62 NSCLC and in the test with COLO 205 colon was more than 100 µM in each case. Besides, the TGI with M19-MEL melanoma, with SF-268 CNS, with SF-295 CNS, with HOP-62 NSCLC, in the test on NCI-H522 lung and with COLO 205 colon was more than 100 µM in each case. For the same compound, the TGI with K-562 leukemia is more than 100 µM; with SNB-75 CNS, 31.6 µM.
`CC1(C(=O)O)CCOc2ccccc21` (stereo not given): the TGI in the test with M19-MEL melanoma, with SF-268 CNS, in the test on SF-295 CNS, in the test with HOP-62 NSCLC, in the test with COLO 205 colon and in the test on K-562 leukemia was more than 100 µM throughout. Further, the TGI with SNB-78 CNS and in the test with SNB-75 CNS was more than 100 µM each time.
For `COC12CCC(C(C(=O)c3ccccc3)=C1C(=O)c1ccccc1)C(O)C2` (stereo not given), the TGI with M19-MEL melanoma, with SF-268 CNS, with SF-295 CNS, in the test with HOP-62 NSCLC, in the test on NCI-H522 lung and in the test with COLO 205 colon was more than 100 µM each time. Besides, the TGI in the test with K-562 leukemia, with SNB-78 CNS and in the test on SNB-75 CNS was more than 100 µM each time.
As to `COc1nc2c(nc(N)n2C2OCC(O)C(O)C2O)c(=O)n1C` (stereo not given), the TGI in the test on M19-MEL melanoma, in the test with SF-268 CNS, with SF-295 CNS, in the test on HOP-62 NSCLC, in the test on NCI-H522 lung and in the test on COLO 205 colon was more than 100 µM in each case. Also, the TGI with K-562 leukemia, in the test on SNB-78 CNS and with SNB-75 CNS was more than 100 µM throughout.
For `O=C1C(=O)N(c2nccs2)C(=O)C(=O)C1c1nc2ccccc2s1`, the TGI with M19-MEL melanoma, in the test on SF-268 CNS, with SF-295 CNS, in the test with HOP-62 NSCLC, in the test with COLO 205 colon and with SNB-78 CNS was more than 100 µM throughout. In addition, the TGI in the test on SNB-75 CNS was more than 100 µM.
`CC(=O)[O-].[Zn].c1ccc(/C(=N\Nc2ccccn2)c2ccccn2)cc1`: the TGI in the test on M19-MEL melanoma is 1.89 µM; with SF-268 CNS, 3.13 µM; in the test with SF-295 CNS it was 12.3 µM; in the test with HOP-62 NSCLC, 1.81 µM; in the test with NCI-H522 lung, 2.06 µM; in the test with K-562 leukemia, 2.35 µM. Moreover, the TGI came out at 12.5 µM in the test on SNB-78 CNS and 2.63 µM in the test with SNB-75 CNS. For the same compound, the GI50 is 0.421 µM with SF-268 CNS, 0.46 µM in the test with SF-295 CNS, 0.591 µM in the test on HOP-62 NSCLC and 0.131 µM with NCI-H522 lung.
Consider `CCn1c(=O)c2ccccc2n2c(=O)c3cc4ccccc4cc3nc12`, for which the TGI is more than 100 µM in the test on M19-MEL melanoma; more than 100 µM in the test on SF-268 CNS; 80 µM in the test on SF-295 CNS; more than 100 µM with HOP-62 NSCLC; more than 100 µM in the test with NCI-H522 lung; more than 100 µM with COLO 205 colon. Also, the TGI in the test on K-562 leukemia is more than 100 µM; in the test on SNB-78 CNS, more than 100 µM; with SNB-75 CNS, 95.3 µM.
For `CCOC(=O)C1=C(Nc2ccc(Br)cc2)OC/C1=N\NC(=O)c1ccccc1O`, the TGI was more than 100 µM in the test with M19-MEL melanoma; more than 100 µM in the test on SF-268 CNS; more than 100 µM in the test with SF-295 CNS; more than 65.1 µM with HOP-62 NSCLC; 34.2 µM in the test on NCI-H522 lung; more than 100 µM with COLO 205 colon. Besides, the TGI is 38.6 µM with K-562 leukemia, more than 79.7 µM with SNB-78 CNS and more than 48.3 µM in the test with SNB-75 CNS.
On to `S=c1sc2cscc2s1`, for which the TGI in the test with M19-MEL melanoma was 34.3 µM; with SF-268 CNS, 64.5 µM; with SF-295 CNS, more than 100 µM; with HOP-62 NSCLC, 74.5 µM; in the test on NCI-H522 lung, 36.7 µM; with COLO 205 colon, 40.9 µM. Also, the TGI is more than 100 µM in the test with K-562 leukemia, more than 100 µM in the test on SNB-78 CNS and 35.8 µM with SNB-75 CNS.
Take `Cc1ccccc1C(=O)Oc1ccc(OCc2ccccc2)cc1`: the TGI with M19-MEL melanoma, in the test on SF-268 CNS, in the test on SF-295 CNS, in the test with HOP-62 NSCLC, with COLO 205 colon and in the test on K-562 leukemia was more than 100 µM each time. Besides, the TGI in the test on SNB-78 CNS and in the test with SNB-75 CNS was more than 100 µM throughout.
